Measured values as given in patent US10537567B2, “Kinase inhibitors for treatment of disease” (BioAxone BioSciences, Inc., priority 2017, dated 2020).
“Also recorded” adds a separate entry of the source.

Columns and labels:
[1] = molecular target: 468-target kinome screen; assay: DiscoverX kinome screen, off-target hits; type: binding, human; details: 10,000 nM API
Description: (§1) A 468-target kinome screen and a safety screen were carried out to examine the off-target profiles of different kinase inhibitors (DiscoverX, Freemont, Calif.). The kinome screen is a binding assay where API interference of kinase domain/substrate binding is assessed as percent of control. Less than 10% binding (or >90% binding inhibition) is most biologically relevant and considered as a ‘hit’. BA-2017 only had 7 off-target hits compared to BA-1049 and Netarsudil, which both had 11 hits (Table 1) (Studirvant et al. 2016 Bioorg Med Chem Lett. 26(10):2475-2480). […] Published data for Netarsudil were with 200 times less API. […] The NET activity likely helps to decrease IOP but might increase hyperemia, while the SERT activity might have long-term safety consequences (Costagliola et al. 2004 CNS drugs 18(8): p. 475-484).
(§2) In the kinome screen BA-2017 had fewer off-target hits (Table 1) than BA-1049. […] An interesting hit from the kinome screen was on Abl (Table 1), an oncogene that also regulates many cellular activities, including vascular leakage.

[2] = molecular target: T1, GRK1 (Homo sapiens, UniProt Q15835); assay: DiscoverX kinome screen; type: binding
T1 construct: are incubated with DNA-tagged kinase domains tagged; DNA tag; purchased DiscoverX
T1 sequence (Q15835 190-455 limits assumed): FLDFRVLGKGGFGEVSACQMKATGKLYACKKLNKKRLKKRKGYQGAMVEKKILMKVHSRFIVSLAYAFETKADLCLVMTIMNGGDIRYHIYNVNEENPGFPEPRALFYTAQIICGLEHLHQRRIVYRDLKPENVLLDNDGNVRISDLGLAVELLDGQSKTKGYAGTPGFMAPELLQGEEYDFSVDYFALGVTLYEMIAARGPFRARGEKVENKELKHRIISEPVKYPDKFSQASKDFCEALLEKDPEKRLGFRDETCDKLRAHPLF
Description: as §1, §2

[3] = molecular target: T2, PKC Δ (Homo sapiens, UniProt Q05655); assay: DiscoverX kinome screen; type: binding; details: 10,000 nM API
T2 construct: are incubated with DNA-tagged kinase domains tagged; DNA tag; purchased DiscoverX
Description: as §1, §2

[4] = molecular target: T3, PKC ε (Homo sapiens, UniProt Q02156); assay: DiscoverX kinome screen; type: binding; details: 10,000 nM API
T3 construct: are incubated with DNA-tagged kinase domains tagged; DNA tag; purchased DiscoverX
Description: as §1, §2

[5] = Microbead model of glaucoma in rats; type: in vivo, Sprague Dawley rat; details: ocular treatment vs vehicle-treated eyes
Description: The different markers of RGC dysfunction are examined in a rat model of glaucoma where latex microspheres are injected into the anterior chamber of the eye to block outflow through the TM. In Sprague Dawley rat RGC loss is 20%-30% over a 4-6 weeks period when 20 μL of beads are injected weekly. This severe model is used to start to determine the amount of API in the retina 1 hour after topical installation of the API/latanoprost combination. Rats are topically dosed with API/Latanoprost for a week after microbead injection, a time when IOP is elevated. The right eyes serve as non-glaucomatous controls.
BIII tubulin expression is decreased in RGCs in glaucoma (Soto et al. 2008 J Neurosci. 28(2): p. 548-561). Loss of BIII tubulin is a biomarker of early RGC degeneration. […] BIII tubulin is observed in radial sections, and RGCs identified by labeling with Brin3. For quantitative comparisons, control and treated radial cryostat sections are cut in the same block and mounted on the same slide, and labeled together with BIII isotype-specific antibodies.
ROCK activation is examined in the same microbead model of glaucoma in rats 4 weeks after daily topical dosing in rats with left and right eyes injected with beads. API alone or API+Latanoprost are delivered once daily by 15 μL eye drop instilled into the left eyes (glaucoma/treated) and right eyes left untreated (glaucoma/untreated). […]

[6] = test system: midbrain dopaminergic neurons; assay: MPTP mouse model; type: in vivo, C57BL/6 mice; details: 10 or 100 mg/kg per day in drinking water, 14 days
From the text: Previous studies have shown that this compound causes the overactivation of the c-Abl non-receptor tyrosine kinase in these neurons, which then phosphorylates the Parkin E3 ubiquitin ligase leading to its inactivation (Ko et al., Proc. Nat. Acad. Sci. USA; 2010; 107:16691). Additionally, this neurotoxin is also known to cause the activation of Rho kinase (ROCK) in the brain when administered to animals (Rodriguez-Perez et al., Neurobiol. Dis., 2013; 58:209).
Different cohorts of adult C57BL/6 mice (Charles River; Wilmington, Mass.) (8 to 10 per group) receive intraperitoneal injections of either vehicle or 30 mg/kg of MPTP (Sigma; St. Louis, Mo.) dissolved in 0.9% saline for 5 consecutive days. This sub-acute/chronic treatment regimen typically leads to the death of 40 to 50% of midbrain dopaminergic neurons of the substantia nigra within 1 to 2 weeks (Meredith and Rademacher; J Parkinsons Dis.; 2011; 1(1):19).
The cohorts are carried forward for 14 days. On the final 2 days of the treatment paradigm, mouse cohorts are subjected to behavioral testing using the accelerated rotarod on one day or grid-walking test on the other day. At completion of the final behavioral test, animals are deeply anesthetized and then perfused transcardially with 4% paraformaldehyde in phosphate buffer. Brains are removed from the craniums and post-fixed for 1-2 hours. The brains are then immersed in 30% sucrose for cryo-protection. Whole coronal sections (20-25 μm thick) through the midbrain region containing the substantia nigra are obtained for each animal and thaw mounted onto SuperFost Plus slides (Thermo-Fisher). Individual sections are reacted with rabbit anti-tyrosine hydroxylase (TH) antibody (EMD-Millipore) overnight in PBS containing 0.05% Triton X-100 and 10% normal goat serum. After washing in PBS/Triton-X-100 multiple times, sections are reacted with […] goat anti-rabbit secondary antibody. Following another round of washing, the slides are reacted with Vecta Stain Elite ABC kit for DAB-enhanced peroxidase detection (Vector Labs; Burlingame, Calif.). Following peroxidase reaction, the sections are subjected to Nissl staining to label all cell types as a counterstain. The sections are then coverslipped in permanent mounting media.
Sections are examined by visible microscopy and photographic images captured. The number of TH positive neurons are estimated in the series of images by unbiased stereological analysis using Stereo Investigator. Numbers of TH-positive neurons per area of the substantia nigra are determined and statistical analyses performed to compare between, control untreated, MPTP/no treatment, MPTP/inhibitor treatments.

[7] = Total body irradiation (TBI) mouse model, GI histopathology; type: in vivo, mice; details: dosing for three days, 3 days after irradiation
Description: At day 0, TBI is carried out at a lethal dose of 8.0 Gy (Harlan mice) or 9.0 Gy (Coats mice)-doses that are expected to cause death in about 90% of animals within 30 days. […] Mice are monitored for survival up to day 30. During this period, mice were deprived of all supportive care, including antibiotics, to increase the stringency of the survival protocol. Survival is assessed with Kaplan-Meir curves. […] Mice are euthanized at 3 days and GI tissue is paraffin-embedded, sectioned and immunolabeled with rabbit anti-mouse leucine-rich-repeat-containing G-protein-coupled receptor 5 (LGR5), a GI stem cell marker that is expressed upon GI injury.

T2 sequence (Q05655 349-603 limits assumed, stated change not applied): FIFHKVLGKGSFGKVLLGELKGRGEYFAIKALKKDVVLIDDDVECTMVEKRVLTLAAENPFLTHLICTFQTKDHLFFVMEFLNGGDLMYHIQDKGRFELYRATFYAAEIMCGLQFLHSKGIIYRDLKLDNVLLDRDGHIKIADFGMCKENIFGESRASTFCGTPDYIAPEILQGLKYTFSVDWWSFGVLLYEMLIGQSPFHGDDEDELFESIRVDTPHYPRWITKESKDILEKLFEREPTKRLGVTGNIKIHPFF
T3 sequence (Q02156 408-668 limits assumed): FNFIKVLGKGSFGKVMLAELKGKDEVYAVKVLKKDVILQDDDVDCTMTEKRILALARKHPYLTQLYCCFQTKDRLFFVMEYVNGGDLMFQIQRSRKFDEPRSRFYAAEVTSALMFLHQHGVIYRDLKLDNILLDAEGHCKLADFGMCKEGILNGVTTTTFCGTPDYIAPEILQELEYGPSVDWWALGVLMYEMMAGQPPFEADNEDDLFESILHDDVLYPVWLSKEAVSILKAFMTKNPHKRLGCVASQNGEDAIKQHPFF

Structure (SMILES) | Kinome Screen Other (other off-target kinase) [1] | Off-target activity on GRK1 [2] | Kinome Screen % inhibition PKC Δ [3] [%] | Kinome Screen % inhibition PKC ε [4] [%] | BIII tubulin immunostaining in glaucoma eyes [5] | Cell loss in substantia nigra [6] | Motor function in behavioral testing [6] | Radiation-induced jejunal damage (LGR5 expression) [7] | # Hits <10% binding ([1]; hit = less than 10% binding (>90% binding inhibition))
C[C@H](N)C1CCN(S(=O)(=O)c2cccc3c(=O)[nH]ccc23)CC1 [BA-2057] | none | neither BA-1076 nor its metabolite, BA-2057, exhibits off-target inhibition of GRK1 | <70 | <70 | prevents the loss of BIII tubulin immunostaining | prevent a significant percentage of the cell loss | improved motor function | mitigated radiation-induced jejunal damage | –
C[C@H](N)C1CCN(S(=O)(=O)c2cccc3cnccc23)CC1 [BA-1076] | (ABL) | does not have this off-target effect; also recorded: neither BA-1076 nor its metabolite, BA-2057, exhibits off-target inhibition of GRK1 | <70 | 86 | prevents the loss of BIII tubulin immunostaining | prevent a significant percentage of the cell loss | improved motor function | mitigated radiation-induced jejunal damage | 7
